Experimental data taken from patent US20250072423A1, “THIOPHENE ACETIC ACID FOR PLANT GROWTH REGULATION” (priority 2023, published 2025).

How the values were obtained:
WT Arabidopsis seedlings [1] = assay: Root growth of WT Arabidopsis seedlings (Experiment 6); type: in vivo, A. thaliana
Protocol: (§1) Arabidopsis Columbia-0 wild type (WT) was used for assessing the effect of TAA on root growth and its effects on the expression of auxin-responsive genes. Seeds of A. thaliana were surface sterilized by suspending in 70% ethanol for 1 minute, followed by treatment with 10% bleach for 20 minutes. After thorough washing with sterile distilled water, the sterilized seeds were plated onto germination medium (half-strength Murashige and Skoog basal medium with vitamins (1/2 MS) medium supplemented with 1% sucrose and 0.7% plant agar) for germination. Germination was initiated by incubating the seeds in darkness at 5° C. for 2 days, followed by transfer to a light environment at 22° C. with a photoperiod of 16-h light/8-h dark for further growth. Stock solutions of TAA were prepared in DMSO (dimethyl sulfoxide). In control treatments, DMSO was used in equal amounts as present in the greatest concentration of TAA tested.
To analyze the effect of TAA on root growth, WT Arabidopsis seedlings were germinated as described and uniform-looking 8-day-old seedlings were transferred to germination medium supplemented with different concentrations of TAA (0.1, 1, 2, 5, 10, 25, 50, and 100 μM) or NAA/IAA/IBA (0.05, 0.1, 1, 2 and 5 μM). For IBA, two additional concentrations (10 and 25 μM) were also analyzed. Seedlings grown on media supplemented with an equal volume of DMSO were used as control. The seedlings were allowed to grow for 6 days and the plates were photographed at 24 h intervals. Primary root length was measured using Image J software. The difference in the number of lateral roots (LR) and root hairs was visually observed. Microscopic images were taken on a Leica Thunder Imager System (Leica Microsystems Ltd., Switzerland) and the images were processed with LAS X software.

WT Arabidopsis seedlings [2] = assay: Root growth of WT Arabidopsis seedlings in the presence of NPA (Experiment 7); type: in vivo, A. thaliana; settings: 5 μM TAA added, all NPA concentrations analyzed (0.5-8 μM)
Protocol: as §1
To analyze the effect of TAA on root growth in the presence of NPA (N-1-naphthylphthalamic acid), WT Arabidopsis seedlings were germinated as described and uniform-looking 8-day-old seedlings were transferred to germination medium supplemented with different concentrations of TAA (5 and 10 μM) and different concentrations of NPA (0, 0.5, 1, 2, 4, and 8 μM). The seedlings were allowed to grow for 6 days and the plates were photographed at 24 h intervals. […]

AtIAA5 (AT1G15580) = assay: qRT-PCR of early auxin-responsive gene AtIAA5 (Experiment 9); type: in vivo, A. thaliana; settings: 5 and 10 μM TAA
Protocol: To analyze TAA responsive genes in Arabidopsis, WT Arabidopsis seeds were germinated as described and 14-day-old uniform-looking seedlings were initially acclimatized in liquid germination medium for 2 hours before transferring to medium containing different concentrations of TAA (5 and 10 μM). Seedlings in media supplemented with DMSO were used as control. Five random seedlings were selected and considered as one sample and three samples from both control and treatments were flash frozen in liquid nitrogen and total RNA was isolated using a TRIzol reagent (ThermoFisher Scientific, Cat #15596026).
Expression levels of seven previously reported early auxin-responsive genes were verified by qRT-PCR (quantitative reverse transcription polymerase chain reaction). RNA reverse transcription was performed using QuantiTect Reverse Transcription Kit (Qiagen). Three biological replicates and three technical replicates were used for all qRT-PCRs. Arabidopsis actin gene (AT3G18780) was used as internal reference.

WT A. thaliana seedlings = assay: Root gravitropism of WT Arabidopsis seedlings (Experiment 8); type: in vivo
Protocol: as §1
To analyze the effect of TAA on gravitropism, WT A. thaliana seeds were cultured on 1/2 MS medium for 8 days. Uniform seedlings were then selected and vertically grown in germination medium supplemented with different concentrations of TAA (1, 2, 5, 10, and 25 μM) for 24 h. Seedlings grown on media supplemented with DMSO were used as control. The plates were then rotated clockwise 90° to make the root parallel to the ground. The seedlings were allowed to grow for 73 h and the plates were photographed at different intervals. Image J software was used to measure the curvature of 16 plants each in the control and treatment groups.

**Q.** How did the “length of the primary root relative to control” value (WT Arabidopsis seedlings [1]; 50 μM, after 6 days of treatment, 8-day-old seedlings) turn out when `O=C(O)Cc1ccsc1` [TAA] was run?
**A.** 50%

**Q.** What about the “number and elongation of lateral roots (LR)” value (WT Arabidopsis seedlings [1]; higher concentrations (5 μM and above)) of the same molecule?
**A.** reduced the number of LR and inhibited the elongation of LR

**Q.** And the “effect on primary root length” value (WT Arabidopsis seedlings [1]; low concentration range (FIG. 8a))?
**A.** promoter role

**Q.** What about the “number of lateral roots (LR)” value (WT Arabidopsis seedlings [1]; lower concentrations of TAA) of the same molecule?
**A.** increased

**Q.** And the “number of root hairs” value (WT Arabidopsis seedlings [2])?
**A.** increased the number of root hairs

**Q.** What about the AtIAA5 expression (AtIAA5 (AT1G15580)) of the same molecule?
**A.** induction

**Q.** What about the “growth angle of primary roots” value (WT A. thaliana seedlings; 50 h after treatment (FIG. 8b)) of the same molecule?
**A.** ~90 °

**Q.** And the “growth angle of primary roots” value (WT A. thaliana seedlings; higher concentrations (5, 10 and 25 μM))?
**A.** did not show a marked change in growth angle

**Q.** And the “rate of gravitropic response” value (WT A. thaliana seedlings; lower concentrations (1 and 2 μM), plates rotated 90°)?
**A.** enhanced the rate of gravitropic response
